Here are results for 20 compounds from patent publication US12037346B2, “Amino-substituted heteroaryls for treating cancers with EGFR mutations” (Nuvalent, Inc., priority 2021, dated 2024).

pIC50: −log10 of the molar value.

For the first assay, the system named is A431 cells (amplification of the wild-type EGFR gene), phospho-ERK Thr202/Tyr204. Briefly: Cellular phosphorylation assay, pERK (phospho-ERK Thr202/Tyr204 AlphaLISA) in A431. Format: cell-based. The note with it: Homo sapiens, A-431, compound incubated for 5 hours. As to the method:
(§1) Besides Ba/F3s, two commercially available cell lines were also used. NCI-H1781 is a HER2 exon20 insertion cell line bearing HER2-A775_G776insV-G776C. A431 bears amplification of the wild-type EGFR gene.
(§2) Ba/F3 cells were plated at 50,000 cells/well (40 μL), or NCI-H1781 cells or A431 cells were plated at 12,500 cells/well (40 μL), in a 384-well plate for 1 day. Test compounds (40 nL) were then added in a 3-fold dilution series using the TECAN EV0200 liquid handler and incubated for 5 hours. Only for pEGFR analysis in A431, the cells were briefly stimulated with EGF (30 ng/mL) for 15 minutes. Media were removed using Apricot Designs. Phosphoproteins were analyzed using the phospho-EGFR Tyr1068 AlphaLISA kit (“pEGFR”; PerkinElmer #ALSU-PEGFR-B10K;) phospho-ERK Thr202/Tyr204 AlphaLISA kit (“pERK”; PerkinElmer #ALSU-PERK-A10K) or the phospho-ErbB2 Tyr1221/1222 AlphaLISA kit (“pHER2”; PerkinElmer #ALSU-PEB2-A10K;) according to the manufacturer's instructions. Briefly, cells were lysed with lysis buffer (10 μL) containing protease-inhibitor and phosphatase-inhibitor cocktails. The lysates were transferred into a new optical plate, incubated with the acceptor mix (5 μL) for 1.5-2 hours at room temperature in darkness, and then mixed with the donor mix (5 μL) overnight in darkness. Fluorescence was measured on a plate reader using the appropriate AlphaLISA settings. Half-maximal inhibitory concentration (IC50) was calculated from percent inhibition and inhibitor concentration using four-parameter logistic regression. […]
The pIC50 is the negative decadic logarithm of the IC50, by convention in mol/L. Higher therefore signals a small IC50. Compound `C=CC(=O)N1CC=C(c2ccc3ncnc(Nc4ccc(Oc5ccc6ocnc6c5)c(C)c4)c3n2)CC1` [Example 10] gave a pIC50 of 6.30 to 7.00.
The same measure, in the same setting: with `Cc1cc(Nc2ncnc3ccc(C4=CCN(C(=O)/C=C/C5CCCN5C)CC4)nc23)ccc1Oc1ccn2ncnc2c1` (stereo not drawn) [Example 25] the figure was at most 6.00; with `C=CC(=O)N1CCC=C(c2ccc3ncnc(Nc4ccc(Oc5ccn6ncnc6c5)c(C)c4)c3n2)C1` [Example 27], at most 6.00; with `C=CC(=O)N1CCC(c2ccc3ncnc(Nc4ccc(Oc5ccn6ncnc6c5)c(C)c4)c3n2)C(C)C1` (stereo not drawn) [Example 28], at most 6.00.
Same read-out and setting: under `C=CC(=O)N1CC(c2ccc3ncnc(Nc4ccc(Oc5ccn6ncnc6c5)c(C)c4)c3n2)C1` [Example 33] stands at most 6.00; under `C=CC(=O)N1CC=C(c2ncc3ncnc(Nc4ccc(Oc5ccn6ncnc6c5)c(C(F)F)c4F)c3n2)C[C@@H]1C` [Example 61], at most 6.00; under `C=CC(=O)N1CC=C(c2ncc3ncnc(Nc4ccc(Oc5cc(C)n6ncnc6c5)c(C)c4F)c3n2)C[C@@H]1C` [Example 97], 6.00 to 6.30.

The target in another assay is T1, wild-type EGFR (A431 cells) (Homo sapiens, UniProt P00533).
T1 construct: A431 bears amplification of the wild-type EGFR gene; endogenous in cells; host or cells: A431
T1 sequence (P00533 25-1210): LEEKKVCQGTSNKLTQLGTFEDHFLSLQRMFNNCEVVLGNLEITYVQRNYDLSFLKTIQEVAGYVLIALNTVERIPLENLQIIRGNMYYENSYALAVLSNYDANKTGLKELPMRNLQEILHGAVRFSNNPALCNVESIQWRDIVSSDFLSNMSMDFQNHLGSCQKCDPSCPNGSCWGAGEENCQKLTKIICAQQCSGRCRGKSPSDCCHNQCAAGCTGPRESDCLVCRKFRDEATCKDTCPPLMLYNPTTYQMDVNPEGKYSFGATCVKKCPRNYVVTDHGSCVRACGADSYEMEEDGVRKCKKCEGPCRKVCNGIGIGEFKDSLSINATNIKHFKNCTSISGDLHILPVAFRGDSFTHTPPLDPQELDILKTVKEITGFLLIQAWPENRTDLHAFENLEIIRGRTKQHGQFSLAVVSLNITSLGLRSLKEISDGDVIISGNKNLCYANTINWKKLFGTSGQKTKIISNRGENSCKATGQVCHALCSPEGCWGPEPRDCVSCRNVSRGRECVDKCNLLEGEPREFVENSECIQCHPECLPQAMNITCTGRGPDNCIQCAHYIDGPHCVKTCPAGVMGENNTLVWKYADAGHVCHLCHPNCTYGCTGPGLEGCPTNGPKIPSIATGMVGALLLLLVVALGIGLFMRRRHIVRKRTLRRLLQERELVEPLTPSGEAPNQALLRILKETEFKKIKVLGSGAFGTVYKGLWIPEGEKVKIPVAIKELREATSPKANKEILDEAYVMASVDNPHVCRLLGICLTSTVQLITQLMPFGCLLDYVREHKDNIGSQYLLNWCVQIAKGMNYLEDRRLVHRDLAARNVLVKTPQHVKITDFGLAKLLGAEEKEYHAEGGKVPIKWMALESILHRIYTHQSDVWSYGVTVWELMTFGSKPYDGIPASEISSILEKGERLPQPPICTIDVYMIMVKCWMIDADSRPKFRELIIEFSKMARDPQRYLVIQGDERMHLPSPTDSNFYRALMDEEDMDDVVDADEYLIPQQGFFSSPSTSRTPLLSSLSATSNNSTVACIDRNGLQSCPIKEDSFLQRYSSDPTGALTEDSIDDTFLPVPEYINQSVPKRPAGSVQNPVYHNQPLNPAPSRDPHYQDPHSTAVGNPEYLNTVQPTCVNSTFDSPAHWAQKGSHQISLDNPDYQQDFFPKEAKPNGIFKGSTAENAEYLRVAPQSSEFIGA
Description: Cellular phosphorylation assay, pEGFR (phospho-EGFR Tyr1068 AlphaLISA) in A431. In kind it is cell-based. Particulars: compound incubated for 5 hours, EGF (30 ng/mL) for 15 minutes. As to the method: as §1, §2
Take `C=CC(=O)N1CC=C(c2ccc3ncnc(Nc4ccc(Oc5ccc6ocnc6c5)c(C)c4)c3n2)CC1` [Example 10]: the pIC50 was above 7.00.
Still for that read-out and setting: under `C=C(F)C(=O)N1CCN(c2ccc3ncnc(Nc4ccc(Oc5ccn6ncnc6c5)c(C)c4)c3n2)CC1` [Example 24] stands at most 6.00; under `Cc1cc(Nc2ncnc3ccc(C4=CCN(C(=O)/C=C/C5CCCN5C)CC4)nc23)ccc1Oc1ccn2ncnc2c1` (stereo not drawn) [Example 25], at most 6.00; under `C=CC(=O)N1CCC=C(c2ccc3ncnc(Nc4ccc(Oc5ccn6ncnc6c5)c(C)c4)c3n2)C1` [Example 27], at most 6.00.
Compound `C=CC(=O)N1CCC(c2ccc3ncnc(Nc4ccc(Oc5ccn6ncnc6c5)c(C)c4)c3n2)C(C)C1` (stereo not drawn) [Example 28] had a negative-log IC50 (pIC50) of at most 6.00.
In turn, `C=CC(=O)N1CC=C(c2ccc3ncnc(Nc4ccc(Oc5ccn6ncnc6c5)c(C)c4)c3c2F)CC1` [Example 30] gave a pIC50 of at most 6.00.
`C=CC(=O)N1CC(c2ccc3ncnc(Nc4ccc(Oc5ccn6ncnc6c5)c(C)c4)c3n2)C1` [Example 33] showed a negative-log IC50 (pIC50) of at most 6.00.
Still for that read-out and setting: with `C=CC(=O)N1C[C@@H]2CN(c3ncc4ncnc(Nc5ccc(Oc6ccn7ncnc7c6)c(C)c5F)c4n3)C[C@@H]2C1` [Example 46] the figure was at most 6.00; with `C=CC(=O)N1CCC2(C1)CN(c1ncc3ncnc(Nc4ccc(Oc5ccn6ncnc6c5)c(C)c4F)c3n1)C2` [Example 47], at most 6.00; with `C=CC(=O)N1CCC2(CCN(c3ncc4ncnc(Nc5ccc(Oc6ccn7ncnc7c6)c(C)c5F)c4n3)C2)C1` (stereo not drawn) [Example 48], at most 6.00.
On the same count and under the same terms, with `C=CC(=O)N1CC=C(c2ncc3ncnc(Nc4ccc(Oc5ccn6ncnc6c5)c(C)c4F)c3n2)CCC1` [Example 57] the figure was 6.30 to 7.00; with `C=CC(=O)N1CC=C(c2nc3c(Nc4ccc(Oc5ccn6ncnc6c5)c(C)c4)ncnc3cc2OC)CC1` [Example 66], 6.30 to 7.00; with `C=CC(=O)N1CCN(c2ncc3ncnc(Nc4cc(C)c(Oc5ccn6ncnc6c5)cc4F)c3n2)CC1(C)C` [Example 76], at most 6.00.
Still for that read-out and setting: under `C=CC(=O)N1CCN(c2ncc3ncnc(Nc4ccc(Oc5ccn6ncnc6c5)c(C)c4F)c3n2)CC1(C)C` [Example 77] stands 6.30 to 7.00; under `C=CC(=O)N1C(C)CN(c2ccc3ncnc(Nc4ccc(Oc5ccn6ncnc6c5)c(C)c4)c3n2)CC1C` (stereo not drawn) [Example 92], at most 6.00; under `C=CC(=O)N1CCN(c2ccc3ncnc(Nc4ccc(Oc5ccn6ncnc6c5)c(C)c4F)c3c2F)CC1` [Example 93], at most 6.00.
`C=CC(=O)N1CCN(c2ncc3ncnc(Nc4ccc(Oc5ccn6ncnc6c5)c(C)c4F)c3n2)CC1` [Example 98] gave a negative-log IC50 (pIC50) of 6.00 to 6.30.
On the same count and under the same terms, under `C=CC(=O)N1CCN(c2ncc3ncnc(Nc4ccc(Oc5ccn6ncnc6c5)c(C)c4F)c3n2)C[C@H]1C(F)F` [Example 99] stands above 7.00.

The target in the next assay is Ba/F3 HER2-YVMA cells (HER2-A775_G776insYVMA) (Homo sapiens, UniProt P04626, DUP772-775, cells depend on it). Briefly: Cell proliferation assay (CellTiter-Glo), Ba/F3 HER2-YVMA. The note with it: read-out: Ba/F3 HER2-YVMA cell proliferation IC50. In kind it is cell-based. As to the method: The gene encoding HER2-A775_G776insYVMA (“HER2-YVMA”) was synthesized at GeneRay, cloned into the retroviral construct pMSCV-puro (Biovector), and packaged into retroviral particles. The virus was used to infect Ba/F3 cells (RIKEN) at multiplicity of infection=1 or 10 for 1 day. Infected cells were rescued in media (RPMI-1640 with 10% fetal bovine serum and 1% streptomycin and penicillin) supplemented with mouse IL-3 (10 ng/mL) for 2 days, and stable cell lines were selected by IL-3 withdrawal and puromycin (0.8 μg/mL) for 7 days. Monoclones were selected by single-cell dilution in IL-3-free medium containing puromycin ([…]). Transformation of desired genes was confirmed by Sanger sequencing and western blot using the following antibody: HER2 (CST #2242).
Sequence of Ba/F3 HER2-YVMA cells (HER2-A775_G776insYVMA) (P04626 with tags, fused parts or gaps DUP772-775): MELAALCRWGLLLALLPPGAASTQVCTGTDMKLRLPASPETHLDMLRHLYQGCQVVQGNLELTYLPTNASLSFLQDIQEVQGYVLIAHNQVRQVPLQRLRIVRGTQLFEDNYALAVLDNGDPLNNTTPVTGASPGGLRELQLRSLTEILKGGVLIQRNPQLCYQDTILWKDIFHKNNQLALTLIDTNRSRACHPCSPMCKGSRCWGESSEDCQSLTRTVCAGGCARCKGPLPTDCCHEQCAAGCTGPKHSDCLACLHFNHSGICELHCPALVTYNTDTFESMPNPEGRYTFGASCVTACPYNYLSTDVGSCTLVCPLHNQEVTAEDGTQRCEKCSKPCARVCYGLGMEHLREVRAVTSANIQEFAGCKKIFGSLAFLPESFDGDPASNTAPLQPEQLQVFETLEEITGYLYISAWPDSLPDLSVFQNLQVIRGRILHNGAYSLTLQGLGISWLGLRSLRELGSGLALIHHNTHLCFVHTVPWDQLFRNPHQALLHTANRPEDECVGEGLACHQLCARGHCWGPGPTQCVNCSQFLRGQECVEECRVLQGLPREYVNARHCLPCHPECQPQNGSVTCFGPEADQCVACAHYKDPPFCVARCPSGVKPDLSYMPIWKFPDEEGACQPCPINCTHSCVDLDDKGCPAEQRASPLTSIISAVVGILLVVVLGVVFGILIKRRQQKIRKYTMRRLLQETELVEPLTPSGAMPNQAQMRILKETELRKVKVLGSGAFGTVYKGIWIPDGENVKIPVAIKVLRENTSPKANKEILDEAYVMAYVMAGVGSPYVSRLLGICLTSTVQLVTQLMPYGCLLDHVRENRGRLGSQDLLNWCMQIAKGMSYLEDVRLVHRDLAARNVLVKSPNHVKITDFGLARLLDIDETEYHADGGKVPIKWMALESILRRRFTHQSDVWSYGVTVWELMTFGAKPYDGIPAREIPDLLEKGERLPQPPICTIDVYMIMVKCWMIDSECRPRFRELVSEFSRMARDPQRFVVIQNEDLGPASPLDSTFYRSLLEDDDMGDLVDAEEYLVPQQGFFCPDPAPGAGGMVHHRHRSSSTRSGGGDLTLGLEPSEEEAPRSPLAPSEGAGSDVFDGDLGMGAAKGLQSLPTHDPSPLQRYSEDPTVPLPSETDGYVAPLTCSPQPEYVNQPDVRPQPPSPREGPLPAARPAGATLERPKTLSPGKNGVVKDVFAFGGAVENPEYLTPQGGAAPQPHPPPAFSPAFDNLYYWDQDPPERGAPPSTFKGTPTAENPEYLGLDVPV
Ba/F3 cells were plated at 1,000 cells/well (40 μL), or NCI-H1781 or A431 cells were plated at 2,000 cells/well (40 μL), in a 384-well plate for 1 day. Test compounds (40 nL) were then added in a 3-fold dilution series using the TECAN EV0200 liquid handler and incubated for 48 hours (“2 days”), 72 hours (“3 days”), or 48 hours followed by renewal of compound solutions and further incubation for 72 hours (“2 days/3 days”). The 72-hour assay was necessary for NCI-H1781 cells, which are slow-growing, and the resupply of fresh compounds on day 3 obviated the potential confounding effects arising from compound degradation in cell media over 72 hours. Plates were equilibrated at room temperature for 15 minutes followed by addition of 40 μL CellTiter-Glo reagent (Promega). Luminescence was measured on a plate reader. Half-maximal inhibitory concentration (IC50) was calculated from percent inhibition and inhibitor concentration using four-parameter logistic regression. […] In these cases, the regression curve was drawn only for the first inflexion to accurately measure on-target growth inhibitory effect.
Ba/F3, NCI-H1781, and A431 proliferation is driven by the oncogenes in the same way that cancer cell proliferation in humans is driven by the expression of equivalent oncogenes.
(In ATP-based viability assays light output follows the ATP content of the culture.)
With `C=CC(=O)N1CC=C(c2ccc3ncnc(Nc4ccc(Oc5ccc6ocnc6c5)c(C)c4)c3n2)CC1` [Example 10], the GI50 was below 100 nM.
The same measure, in the same setting: under `C=C(F)C(=O)N1CCN(c2ccc3ncnc(Nc4ccc(Oc5ccn6ncnc6c5)c(C)c4)c3n2)CC1` [Example 24] stands 500 to 1000 nM.
`Cc1cc(Nc2ncnc3ccc(C4=CCN(C(=O)/C=C/C5CCCN5C)CC4)nc23)ccc1Oc1ccn2ncnc2c1` (stereo not drawn) [Example 25]: the GI50 is 100 to 500 nM.
On the same count and under the same terms, with `C=CC(=O)N1CCC=C(c2ccc3ncnc(Nc4ccc(Oc5ccn6ncnc6c5)c(C)c4)c3n2)C1` [Example 27] the figure was 100 to 500 nM; with `C=CC(=O)N1CCC(c2ccc3ncnc(Nc4ccc(Oc5ccn6ncnc6c5)c(C)c4)c3n2)C(C)C1` (stereo not drawn) [Example 28], 100 to 500 nM; with `C=CC(=O)N1CC=C(c2ccc3ncnc(Nc4ccc(Oc5ccn6ncnc6c5)c(C)c4)c3c2F)CC1` [Example 30], 100 to 500 nM.
Same read-out and setting: with `C=CC(=O)N1CC(c2ccc3ncnc(Nc4ccc(Oc5ccn6ncnc6c5)c(C)c4)c3n2)C1` [Example 33] the figure was 100 to 500 nM; with `C=CC(=O)N1C[C@@H]2CN(c3ncc4ncnc(Nc5ccc(Oc6ccn7ncnc7c6)c(C)c5F)c4n3)C[C@@H]2C1` [Example 46], 100 to 500 nM.
Take `C=CC(=O)N1CCC2(C1)CN(c1ncc3ncnc(Nc4ccc(Oc5ccn6ncnc6c5)c(C)c4F)c3n1)C2` [Example 47]: the GI50 fell in the range of 100 to 500 nM.
Same read-out and setting: under `C=CC(=O)N1CCC2(CCN(c3ncc4ncnc(Nc5ccc(Oc6ccn7ncnc7c6)c(C)c5F)c4n3)C2)C1` (stereo not drawn) [Example 48] stands 100 to 500 nM; under `C=CC(=O)N1CC=C(c2ncc3ncnc(Nc4ccc(Oc5ccn6ncnc6c5)c(C)c4F)c3n2)CCC1` [Example 57], below 100 nM; under `C=CC(=O)N1CC=C(c2ncc3ncnc(Nc4ccc(Oc5ccn6ncnc6c5)c(C(F)F)c4F)c3n2)C[C@@H]1C` [Example 61], 100 to 500 nM.
As for `C=CC(=O)N1CC=C(c2nc3c(Nc4ccc(Oc5ccn6ncnc6c5)c(C)c4)ncnc3cc2OC)CC1` [Example 66], the GI50 was below 100 nM.
Consider `C=CC(=O)N1CCN(c2ncc3ncnc(Nc4cc(C)c(Oc5ccn6ncnc6c5)cc4F)c3n2)CC1(C)C` [Example 76], for which the GI50 lay within 100 to 500 nM.
As for `C=CC(=O)N1CCN(c2ncc3ncnc(Nc4ccc(Oc5ccn6ncnc6c5)c(C)c4F)c3n2)CC1(C)C` [Example 77], the GI50 was below 100 nM.
On the same count and under the same terms, with `C=CC(=O)N1C(C)CN(c2ccc3ncnc(Nc4ccc(Oc5ccn6ncnc6c5)c(C)c4)c3n2)CC1C` (stereo not drawn) [Example 92] the figure was below 100 nM.
Still for that read-out and setting: under `C=CC(=O)N1CCN(c2ccc3ncnc(Nc4ccc(Oc5ccn6ncnc6c5)c(C)c4F)c3c2F)CC1` [Example 93] stands below 100 nM; under `C=CC(=O)N1CC=C(c2ncc3ncnc(Nc4ccc(Oc5cc(C)n6ncnc6c5)c(C)c4F)c3n2)C[C@@H]1C` [Example 97], below 100 nM; under `C=CC(=O)N1CCN(c2ncc3ncnc(Nc4ccc(Oc5ccn6ncnc6c5)c(C)c4F)c3n2)CC1` [Example 98], below 100 nM.
The same measure, in the same setting: under `C=CC(=O)N1CCN(c2ncc3ncnc(Nc4ccc(Oc5ccn6ncnc6c5)c(C)c4F)c3n2)C[C@H]1C(F)F` [Example 99] stands below 100 nM.
